Results published in patent US6410810B1, “Handling method of (fluoroaryl) borane compound and preparing method of hydrocarbon solution” (Nippon Shokubai Co., Ltd., priority 1997, dated 2002).

Method: The cake is analyzed by ^19F-NMR. More specifically, ^19F-NMR is measured under predetermined conditions using p-fluorotoluene as an internal standard reagent. Then, a peak integral of a fluorine atom of p-fluorotoluene, and a peak integral of fluorine atoms at the ortho-position of a pentafluorophenyl group in tris(pentafluorophenyl)borane are computed from the resulting ^19F-NMR chart first, and thence a weight of tris(pentafluorophenyl)borane is computed using the above two peak integrals.
Here, 0.4963 g (purity: 99%, area ratio) of powders of tris(pentafluorophenyl)borane and 16.0878 g of IsoparE are charged to a vessel, in which the air has been displaced by a nitrogen gas satisfactorily, after which the mixture is stirred for 3 hours or so at 28° C. with stirring.
After the solution is cooled to room temperature, the supernatant is analyzed in the same manner as Example 1 above using ^19F-NMR.

concentration of tris(pentafluorophenyl)borane in supernatant: 0.91 wt %
solubility with respect to IsoparE: 0.91 wt %
temperature at which completely dissolved into IsoparE (0.4963 g powders in 16.0878 g IsoparE, heated): 87 °C
purity after dissolving with heating (stability) (3 wt %): 83.0 % (area ratio)
temperature at which the solution starts to crystallize on cooling (IsoparE solution allowed to stand and cooled): 63 °C
SMILES: Fc1c(F)c(F)c(B(c2c(F)c(F)c(F)c(F)c2F)c2c(F)c(F)c(F)c(F)c2F)c(F)c1F [tris(pentafluorophenyl)borane]
dissolution into IsoparE (0.4963 g powders in 16.0878 g IsoparE, stirred 3 hours or so at 28° C.): does not dissolve into IsoparE completely
